Experimental data reported in US9765063B2, “Amido compounds as RORγt modulators and uses thereof” (New York University, priority 2011, dated 2017).
Entries after “also recorded” stand apart in the source; their conditions may differ. Read-outs that look alike come from different tables or passages of the source.

Tests used:
Type in all cases: cell-based
RORα = RORα overexpression dependent IL17a production in human CD4 T cells (FIG. 3); settings: FIG. 3, FACS, 0.5 μM; listed as NCGC00238427
Method: (§1) Briefly, CD3+ CD4+ CD45RA+ naive human T cells were isolated from peripheral blood derived from healthy donors. The naive T cells were cultured in XVIVO-20 (Lonza) medium for 7 days in the presence of IL2 and stimulatory CD3 and CD28 antibodies. Cells were infected with lentivirus encoding human RORα or RORγ and compound or DMSO was added on day 2. FACS plot analysis is shown after gating on GFP expressing (virus infected) cells.

[1] = tested on: mouse Th17 cell differentiation; test: Th17 assay: mouse Th17 polarization (IL-17a producing cells, FACS); settings: for IC50: naive mouse CD4 T cells, TGFβ and IL6, compounds added Day 1, analyzed Day 4, read-out: Th 17 IC50
Method: (§2) Percentage of DMSO treated IL-17a producing cells was set at 100. Naive mouse CD4 T cells (CD25^−, CD62L^+, and CD44^low-int) were sorted and cultured with CD3/CD28 stimulatory antibodies in the presence of TGFβ (0.1 ng/ml) and IL6 (20 ng/ml). Compounds were added on Day 1 and cells were analyzed on Day 4. For intracellular cytokine staining, cells were incubated for 5 h with phorbol ester (50 ng/ml; Sigma), ionomycin (500 ng/ml; Sigma) and GolgiStop (BD). When needed, surfaces were stained by incubation for 15 min on ice with PECy7-conjugated CD4 (BD Biosciences). The Cytofix/Cytoperm buffer set (BD) was used for intracellular staining. Cells were fixed and made permeable for 30 min on ice and were stained for 30 min on ice in permeabilization buffer with Alexa647-conjugated anti-IL17a (eBioscience) and PE-conjugated anti-IFNg (eBioscience). An LSR II (BD Biosciences) and FlowJo software (Tree Star) were used for flow cytometry. RORg IC50 value acquired from the S2 cell reporter assay is listed for comparison.
as §2, with “With respect to the methodological details pertaining to FIG. 1, naive” for “Percentage of DMSO treated IL-17a producing cells was set at 100. Naive mouse”, “(BD).” for “(BD). When needed, surfaces were stained by incubation for 15 min on ice with PECy7-conjugated CD4 (BD Biosciences).”, “anti-IFNγ” for “anti-IFNg”, “cytometry.” for “cytometry. RORg IC50 value acquired from the S2 cell reporter assay is listed for comparison.”

[2] = tested on: human Th1 cell differentiation; test: Human Th1 cell differentiation, IFNγ production (counter-screen, FIG. 2); settings: FIG. 2, FACS, 0.5 μM, naive CD4 T cells, IL12 and IL2
Method: (§3) For Th1 differentiation, IL12 (10 ng/ml) and IL2 (100 U/ml) were added to naive CD4 T cell cultures instead of TGFβ and IL6.

RORγt [3] = test: RORγt overexpression dependent IL17a production in human CD4 T cells (FIG. 3); settings: FIG. 3, FACS, 0.5 μM
Method: as §1

[4] = tested on: human Th17 cell differentiation; test: Human Th17 cell differentiation (FACS, FIG. 2); settings: FIG. 2, FACS, 0.5 μM
Method: • 1) S2 cell reporter system: Identified hits from HTS are further screened and their specificity confirmed by testing against RORγ-luc, VP16-luc, RORα-luc, and DHR3-luc reporter S2 cell lines. Compounds either having no activity on VP16, RORα, and DHR3 or having ten times higher IC50 values on such reporters are selected for further tests. • 2) Cytokine induced mouse Th17 cells differentiation. Effects on mouse endogenous RORγt in a relevant physiological setting were determined by testing compounds in the Th17 cell differentiation assay. Compounds having RORγt inhibitory activity are predicted to suppress Th17 cell differentiation. Th1 or regulatory T cell differentiation was used as a counter-screen method to select specific compounds that only affect Th17 cell differentiation without having pleiotrophic effects on general T cell proliferation or cytokine production. • 3) ROR dependent Th17 cell differentiation. Compounds were further tested, by examining their effects on T cells expressing RORα or RORγ. […] Compounds affecting IL17a production or ROR regulatory pathways, however, are expected to inhibit both. • 4) Human Th17 cell differentiation. Compound effects on human RORγt will be tested by treating human cord blood CD4 T cells with select compounds to determine if such compounds alter differentiation into Th17 lineages.
as §3

RORγt [5] = target: T1, RORγt (Mus musculus, UniProt P51450); test: RORγt S2 cell reporter assay (Gal4-RORγt fusion, UAS-luciferase)
T1 construct: expressed in transfected cells; the other entry of the earlier key: GAL4 (P04386, Regulatory protein GAL4)
T1 sequence (P51450 with tags, fused parts or gaps): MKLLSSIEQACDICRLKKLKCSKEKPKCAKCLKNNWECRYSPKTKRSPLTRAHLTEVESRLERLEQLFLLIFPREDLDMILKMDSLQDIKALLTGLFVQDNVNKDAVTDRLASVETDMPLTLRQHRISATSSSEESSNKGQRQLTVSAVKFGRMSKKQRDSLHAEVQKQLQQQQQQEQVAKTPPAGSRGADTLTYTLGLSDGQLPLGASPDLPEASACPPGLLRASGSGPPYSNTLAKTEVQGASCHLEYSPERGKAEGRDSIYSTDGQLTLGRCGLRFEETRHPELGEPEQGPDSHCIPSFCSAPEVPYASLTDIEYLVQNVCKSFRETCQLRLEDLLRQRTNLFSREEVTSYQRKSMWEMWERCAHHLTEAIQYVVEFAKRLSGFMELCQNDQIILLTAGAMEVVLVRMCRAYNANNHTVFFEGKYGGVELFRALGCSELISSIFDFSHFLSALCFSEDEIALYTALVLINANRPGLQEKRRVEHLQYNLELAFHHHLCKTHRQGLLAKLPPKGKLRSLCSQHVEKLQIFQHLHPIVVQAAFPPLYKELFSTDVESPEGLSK
Excerpt: Methods: The Drosophila S2 cell line was originally purchased from Invitrogen and was maintained in Schneider's medium supplemented with 10% heat-inactivated bovine fetal calf serum and antibiotics (Invitrogen). […] The resulting chimeric gene was subcloned into the copper inducible pMT/V5-His A vector (available from Invitrogen).
Renilla luciferase construct under the polIII promoter was obtained from Dr. Dasgupta's laboratory (NYU medical center). In order to generate stable cell lines, cells were co-transfected with pMT-G4DBD-RORγt, pMT-G4DBD-RORα, pMT-G4DBD-DHR3, or pMT-G4DBDVP16 and pHygro plasmids (Invitrogen) and screened for resistant colonies in the presence of hygromycin (0.3 mg/mL). […] Using similar methods, stable clones with genomic integration of the luciferase reporters and other reporters were generated such as pMT-RORα_luc, pMT-DHR3_luc, or pMT-VP16_luc.
Methods: 600 G4DBD-RORγ/γt-luc reporter (#25) or G4DBD-VP16-luc reporter cells were distributed into each well of 1,536-well white bottom plates in 4 μl S2 cell culture volume containing hygromicin (300 μg/ml) and puromycin (2 μg/ml). […] After one-hour incubation, 1 of culture medium solution containing copper sulfate (to final 0.7 mM) and 10 μM RORγ/γt antagonists were added to each well. After 20-hour incubation at ambient temperature, 1.5 μl firefly luciferase detection mix was added and the luciferase activities were measured in 10 min. ViewLux luminometers were used for measuring luciferase signal.
A cell-based reporter assay was used to detect RORγt-mediated activity. This assay, called RORγt employed Drosophila Schneider cells that were stably transfected with two vectors: a gene expressing a fusion of the Gal4 DNA binding domain and RORγt transactivation domain under the control of the metallothionine promoter and a Photinus luciferase reporter regulated by the Gal4 binding site enhancer, UAS. […] Cells (600/well) were dispensed into white solid 1536-well plates (Greiner) using a solenoid-based dispenser. Following transfer of […] compound or DMSO vehicle by a pin tool, the plates were incubated 1 hr at ambient temperature, and 1 uL/well copper sulfate (700 uM final concentration) was added. The plates were centrifuged 15 s at 1000 RPM and incubated 20 hr at ambient temperature. After addition of 1.5 uL Photinus luciferase detection reagent, the plates were incubated 10 min at ambient temperature and then read by a ViewLux (Perkin Elmer) to detect luminescence. […] Efficacy is expressed as % of the maximal response of control inhibitor (Digoxin), set at 100%.

SMILES: COc1cc(O)c(C(CC(=O)N2CC(C)CC(C)C2)c2ccc3c(c2)OCO3)c(OC)c1 (stereo not shown) [RC1, reference compound]
- RORα overexpression dependent IL17a production in human CD4 T cells (RORα): unaffected
- mouse Th17 cell differentiation, as measured by IL17a production ([1]; FIG. 1, FACS, at the indicated concentrations): suppress mouse Th17 cell differentiation
- IC50 [1]: 1 to 10 µM
- Th1 cell differentiation, as measured by IFNγ production ([2]; listed as NCGC00238427): does not inhibit Th1 cell differentiation
- RORγt overexpression dependent IL17a production in human CD4 T cells (RORγt [3]; listed as NCGC00238427): selectively inhibit RORγt dependent; also recorded: selectively inhibits RORγt overexpression dependent IL17a production
- human Th17 cell differentiation ([4]; listed as NCGC00238427): selectively suppress human Th17; also recorded: selectively suppresses human Th17 cell differentiation

SMILES: COc1cc(O)c(C(CC(=O)N2CC(C)CC(C)C2)c2cccc(C(=O)O)c2)c(OC)c1 (stereo not shown) [Compound 101, 3-(3-(3,5-Dimethylpiperidin-1-yl)-1-(2-hydroxy-4,6-dimethoxyphenyl)-3-oxopropyl)benzoic acid]
- IC50 [1]: > 20 µM
- Th1 cell differentiation, as measured by IFNγ production [2]: neither of which exhibits the ability to suppress human Th17 or Th1 cell differentiation
- RORγt overexpression dependent IL17a production in human CD4 T cells (RORγt [3]): neither of which exhibits the ability to inhibit RORγt dependent human Th17 cell differentiation
- Emax (RORγt [5]; Table 1, % of the maximal response of control inhibitor (Digoxin), set at 100%, read-out: Efficacy (%)): 88.7%
- IC50 (RORγt [5]; Table 1, Drosophila S2 cells, luciferase reporter, read-out: IC50): 1 to 10 µM
- IC50 (RORγt [5]; Table 2, from the S2 cell reporter assay, listed for comparison, read-out: S2 cell RORg IC50): 1 to 10 µM
- human Th17 cell differentiation [4]: neither of which exhibits the ability to suppress human Th17 or Th1 cell differentiation
